Laboratory results from ChEMBL document CHEMBL2413072, “Synthesis and in vitro anticancer studies of novel C-2 arylidene congeners of lantadenes” (2013).

How the values were obtained:
Type in all cases: functional
SK-MEL-2 = assay: Growth inhibition of human SK-MEL-2 cells by sulforhodamine B assay
SNB-75 = assay: Growth inhibition of human SNB75 cells assessed as cell growth at 10^-7 M by sulforhodamine B assay; conditions: read-out: Activity
Malme-3M [1] = assay: Growth inhibition of human MALME-3M cells assessed as cell growth at 10^-6 M by sulforhodamine B assay; conditions: read-out: Activity
[2] = Growth inhibition of human Hs 578T cells by sulforhodamine B assay
MDA-MB-231 [3] = assay: Growth inhibition of human MDA-MB-231 cells by sulforhodamine B assay
OVCAR-8 = assay: Growth inhibition of human OVCAR8 cells by sulforhodamine B assay
NCI-H226 = assay: Growth inhibition of human NCI-H226 cells assessed as cell growth at 10^-8 M by sulforhodamine B assay; conditions: read-out: Activity
MDA-MB-231 [4] = assay: Growth inhibition of human MDA-MB-231 cells assessed as cell growth at 10^-8 M by sulforhodamine B assay; conditions: read-out: Activity
[5] = Growth inhibition of human NCI-ADR-RES cells assessed as cell growth at 10^-8 M by sulforhodamine B assay; conditions: read-out: Activity
RXF 393 = assay: Growth inhibition of human RXF393 cells assessed as cell growth at 10^-7 M by sulforhodamine B assay; conditions: read-out: Activity
MOLT-4 = assay: Growth inhibition of human MOLT4 cells by sulforhodamine B assay
OVCAR-4 = assay: Growth inhibition of human OVCAR4 cells assessed as cell growth at 10^-8 M by sulforhodamine B assay; conditions: read-out: Activity
Malme-3M [6] = assay: Growth inhibition of human MALME-3M cells by sulforhodamine B assay
[7] = Growth inhibition of human NCI-ADR-RES cells assessed as cell growth at 10^-4 M by sulforhodamine B assay; conditions: read-out: Activity
[8] = read-out: LC50 (the source's name)
[9] = read-out: pLC50 (the source's name) (converted)

CC1(C)C[C@@H](O)[C@]2(C(=O)O)CC[C@]3(C)C(=CC[C@@H]4[C@@]5(C)C/C(=C\C=C\c6ccccc6)C(=O)C(C)(C)[C@@H]5CC[C@]43C)[C@@H]2C1
GI50 (SK-MEL-2; read-out: GI50): 2.35 µM | CC50 (SK-MEL-2; [8]): 26.3 µM | TGI (SK-MEL-2; read-out: TGI): 5.57 µM | GI50 (SK-MEL-2; read-out: pGI50 (converted)): 2.34 µM | CC50 (SK-MEL-2; [9]): 26.3 µM | TGI (SK-MEL-2; read-out: pTGI (converted)): 5.62 µM | growth at 0.1 µM (SNB-75): 89% | growth at 1 µM (Malme-3M [1]): 96% | GI50 ([2]; read-out: GI50): 3.29 µM | CC50 [2, 8]: > 100 µM | TGI ([2]; read-out: TGI): 20.6 µM | GI50 ([2]; read-out: pGI50 (converted)): 3.31 µM | CC50 [2, 9]: > 100 µM | TGI ([2]; read-out: pTGI (converted)): 20.4 µM | GI50 (MDA-MB-231 [3]; read-out: GI50): 2.02 µM | CC50 (MDA-MB-231 [3]; [8]): 12.5 µM | TGI (MDA-MB-231 [3]; read-out: TGI): 4.68 µM | GI50 (MDA-MB-231 [3]; read-out: pGI50 (converted)): 2.04 µM | CC50 (MDA-MB-231 [3]; [9]): 12.6 µM | TGI (MDA-MB-231 [3]; read-out: pTGI (converted)): 4.68 µM | GI50 (OVCAR-8; read-out: GI50): 3.41 µM | CC50 (OVCAR-8; [8]): 60.8 µM | TGI (OVCAR-8; read-out: TGI): 14.2 µM | GI50 (OVCAR-8; read-out: pGI50 (converted)): 3.39 µM | CC50 (OVCAR-8; [9]): 60.3 µM | TGI (OVCAR-8; read-out: pTGI (converted)): 14.1 µM | growth at 0.01 µM (NCI-H226): 97% | growth at 0.01 µM (MDA-MB-231 [4]): 108% | growth at 0.01 µM [5]: 107% | growth at 0.1 µM (RXF 393): 94% | GI50 (MOLT-4; read-out: GI50): 2.48 µM | CC50 (MOLT-4; [8]): > 100 µM | TGI (MOLT-4; read-out: TGI): 7.84 µM | GI50 (MOLT-4; read-out: pGI50 (converted)): 2.45 µM | CC50 (MOLT-4; [9]): > 100 µM | TGI (MOLT-4; read-out: pTGI (converted)): 7.76 µM | growth at 0.01 µM (OVCAR-4): 100% | GI50 (Malme-3M [6]; read-out: GI50): 2.57 µM | CC50 (Malme-3M [6]; [8]): 59.2 µM | TGI (Malme-3M [6]; read-out: TGI): 7.23 µM | GI50 (Malme-3M [6]; read-out: pGI50 (converted)): 2.57 µM | CC50 (Malme-3M [6]; [9]): 58.9 µM | TGI (Malme-3M [6]; read-out: pTGI (converted)): 7.24 µM | growth at 100 µM [7]: -87%
